These results are taken from ChEMBL document CHEMBL1201862, “PubChem BioAssay data set” (2004).

Test systems include A498; ACHN; DU-145; EKVX; HCT-15; HOP-92; Hs-578T; KM12; LOX IMVI; NCI-H226; NCI-H23; NCI-H522; OVCAR-8; SK-OV-3; SN12C; SNB-75; SW-620; TK-10; UACC-62.
Holding throughout (experiment): inhibition of tumour cell growth, NCI panel, 48 h

The structures appear in SMILES notation.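 96-well plates; 48 h exposure; 5 concentrations. Endpoints by linear interpolation between flanking doses. Not reached: highest tested concentration assigned. The concentration for 50% growth inhibition is given as GI50.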 Activity calls are given as the source filed them. Rule as the data show it: active = GI50 up to about 1.1 µM and inactive = higher. Bridge positions count the residues as written; N and C are the ends. Peptide text beside a SMILES is read from it. * marks the point of attachment. Cbz = O=C(OCc1ccccc1)* Where only a bound is given, the exact number is not on record here.

`CNC(=O)C1CCCCNC(=O)CCC(NC(=O)OCc2ccccc2)C(=O)N1` (stereo not drawn) (Cbz-Glu-Lys-NHMe; lactam 1-2; configuration not given here): the GI50 was 39.5 µM (inactive) in the assay with A498; > 100 µM (inactive) with ACHN; > 100 µM (inactive) with DU-145; > 100 µM (inactive) with EKVX; above 100 µM in the assay on HCT-15; > 100 µM (inactive) with HOP-92. For the same compound, the GI50 in the assay with Hs-578T, with KM12, with LOX IMVI, in the assay with NCI-H226, in the assay on NCI-H23 and in the assay on NCI-H522 was > 100 µM (inactive) in each case. In addition, the GI50 in the assay on OVCAR-8, in the assay on SK-OV-3, in the assay with SN12C, in the assay on SNB-75, with SW-620 and with TK-10 was > 100 µM (inactive) each time. The GI50 in the assay with UACC-62 was > 100 µM (inactive).
`Cc1nc(=O)[nH]c2c1C(=O)N(C(C)C)C(NC(C)C)S2` (stereo unspecified): the GI50 with A498 was > 100 µM (inactive); in the assay on ACHN, > 100 µM (inactive); in the assay on DU-145 it was > 100 µM (inactive); with EKVX, > 100 µM (inactive); with HCT-15 it was 93.8 µM; in the assay with HOP-92, 97.7 µM (inactive). The GI50 was > 100 µM (inactive) in the assay with KM12; 83.6 µM (inactive) in the assay on LOX IMVI; > 100 µM (inactive) in the assay with NCI-H226; > 100 µM (inactive) in the assay with NCI-H23; 47.2 µM (inactive) in the assay with NCI-H522; > 100 µM (inactive) in the assay with OVCAR-8. For the same compound, the GI50 in the assay on SK-OV-3 is > 100 µM (inactive); in the assay with SN12C, > 100 µM (inactive); in the assay with SNB-75, > 100 µM (inactive); with SW-620 it was > 100 µM (inactive); with TK-10, > 100 µM (inactive); in the assay on UACC-62, 76 µM (inactive).
As to `CCOC(=O)c1c(-c2ccc(O)c(OC)c2)c(C#N)c(=S)n(C2OC(CO)C(O)C(O)C2O)c1-c1ccccc1` (stereo unspecified), the GI50 with A498 is > 100 µM (inactive); in the assay with ACHN, > 100 µM (inactive); with DU-145, > 100 µM (inactive); in the assay with EKVX, > 100 µM (inactive); in the assay with HCT-15 it was above 100 µM; in the assay with HOP-92, 66.7 µM (inactive). Also, the GI50 is > 100 µM (inactive) in the assay on Hs-578T; > 100 µM (inactive) with KM12; > 100 µM (inactive) in the assay on LOX IMVI; 13 µM (inactive) in the assay on NCI-H226; > 100 µM (inactive) in the assay with NCI-H23; > 100 µM (inactive) in the assay on OVCAR-8. Besides, the GI50 with SN12C, in the assay on SW-620 and in the assay on UACC-62 was > 100 µM (inactive) each time.
On to `CC1(C)N=C(/C(Cl)=[N+](/[O-])C(=O)c2ccc(F)cc2)C(C)(C)N1O`, for which the GI50 was 19.1 µM (inactive) with ACHN; 29.6 µM (inactive) in the assay on DU-145; 20.1 µM (inactive) with EKVX; 13.4 µM in the assay with HCT-15; 24.5 µM (inactive) in the assay with HOP-92; 26.6 µM (inactive) in the assay with Hs-578T. The GI50 in the assay with KM12 was 26.2 µM (inactive); in the assay on LOX IMVI it was 11.7 µM (inactive); with NCI-H226 it was 22.7 µM (inactive); with NCI-H23, 17.1 µM (inactive); in the assay on OVCAR-8 it was 17.5 µM (inactive); in the assay on SK-OV-3, 22.6 µM (inactive). Also, the GI50 in the assay on SN12C is 15.8 µM (inactive); with SNB-75, 16.6 µM (inactive); with SW-620, 15.1 µM (inactive); with TK-10 it was 16.1 µM (inactive); with UACC-62, 16.7 µM (inactive).
Take `O=C1CCC2(CC1CC(Sc1ccccc1)Sc1ccccc1)OCCO2` (stereo unspecified): the GI50 with A498 is 74.3 µM (inactive); in the assay with ACHN it was 38.6 µM (inactive); in the assay on DU-145, 88.5 µM (inactive); in the assay on EKVX, 61.8 µM (inactive); in the assay with HCT-15, 37.1 µM; in the assay with HOP-92, 28 µM (inactive). For the same compound, the GI50 with Hs-578T was 23.2 µM (inactive); in the assay with KM12, 27.4 µM (inactive); with LOX IMVI it was 37.4 µM (inactive); in the assay on NCI-H226, 58.7 µM (inactive); with NCI-H23, 42.7 µM (inactive); in the assay on NCI-H522 it was 23.3 µM (inactive). Moreover, the GI50 is 42.5 µM (inactive) in the assay with OVCAR-8; > 100 µM (inactive) in the assay with SK-OV-3; 80.4 µM (inactive) in the assay with SNB-75; 49.4 µM (inactive) in the assay on SW-620; 62.7 µM (inactive) with TK-10; 31.2 µM (inactive) in the assay with UACC-62.
With `CC(=O)c1c2c(cc3c1CC1(C3)Cc3cc4c(c(C(C)=O)c3C1)CCCC4)CCCC2`, the GI50 in the assay with A498 was > 100 µM (inactive); in the assay with ACHN, 27.9 µM (inactive); in the assay on EKVX, > 100 µM (inactive); with HCT-15 it was 51.5 µM; with HOP-92, 81.8 µM (inactive); with Hs-578T it was > 100 µM (inactive). Further, the GI50 in the assay on KM12 is 28.7 µM (inactive); in the assay on LOX IMVI, > 100 µM (inactive); in the assay on NCI-H226, > 100 µM (inactive); in the assay with NCI-H23 it was > 100 µM (inactive); in the assay on NCI-H522, 74.6 µM (inactive); with OVCAR-8, > 100 µM (inactive). The GI50 with SK-OV-3, in the assay on SN12C, with TK-10 and in the assay on UACC-62 was > 100 µM (inactive) in each case.
Turning to `CCOC(=O)Cn1c2ccc(Br)cc2c2nc3ccccc3nc21`, the GI50 in the assay with A498 was > 100 µM (inactive); in the assay with ACHN, > 100 µM (inactive); in the assay with DU-145 it was > 100 µM (inactive); in the assay with HOP-92 it was > 100 µM (inactive); in the assay with Hs-578T, 93.3 µM (inactive); with KM12, > 100 µM (inactive). The GI50 in the assay with LOX IMVI, in the assay on NCI-H226, in the assay on NCI-H23, with OVCAR-8, in the assay on SN12C and with SNB-75 was > 100 µM (inactive) each time. The GI50 in the assay with SW-620, in the assay with TK-10 and with UACC-62 was > 100 µM (inactive) throughout.
`CN(C)C(=O)c1nnsc1NN=O`: the GI50 in the assay on ACHN was > 100 µM (inactive); in the assay with DU-145, > 100 µM (inactive); in the assay on EKVX it was > 100 µM (inactive); in the assay on HCT-15, above 100 µM; with HOP-92 it was > 100 µM (inactive); in the assay on Hs-578T, > 100 µM (inactive). The GI50 in the assay on KM12, in the assay with LOX IMVI, in the assay on NCI-H226, in the assay on NCI-H23, in the assay with NCI-H522 and in the assay on OVCAR-8 was > 100 µM (inactive) each time. For the same compound, the GI50 in the assay with SK-OV-3, in the assay with SN12C, in the assay on SNB-75, in the assay on SW-620 and in the assay on UACC-62 was > 100 µM (inactive) in each case.
Consider `O=C(O)c1ccccc1/C=C1/Nc2ccccc2C1=O`, for which the GI50 was > 100 µM (inactive) in the assay on A498; 57.3 µM (inactive) in the assay on ACHN; > 100 µM (inactive) in the assay on DU-145; 60 µM (inactive) with EKVX; 41.5 µM with HCT-15; > 100 µM (inactive) with HOP-92. Besides, the GI50 in the assay on Hs-578T was 62.5 µM (inactive); in the assay on KM12 it was 37.9 µM (inactive); in the assay with LOX IMVI, 75.9 µM (inactive); in the assay on NCI-H226, > 100 µM (inactive); in the assay with NCI-H23 it was > 100 µM (inactive); in the assay on OVCAR-8, > 100 µM (inactive). The GI50 was > 100 µM (inactive) in the assay with SK-OV-3; > 100 µM (inactive) with SN12C; > 100 µM (inactive) in the assay with SNB-75; 57.5 µM (inactive) with SW-620; > 100 µM (inactive) in the assay on TK-10; > 100 µM (inactive) with UACC-62.
For `CC(=O)OCC1OC(n2c(C)c(C)c(C)c(C#N)c2=S)C(OC(C)=O)C(OC(C)=O)C1OC(C)=O` (stereo unspecified), the GI50 was > 100 µM (inactive) with A498; 48.5 µM (inactive) in the assay on ACHN; > 100 µM (inactive) in the assay with DU-145; 26.2 µM (inactive) with EKVX; above 100 µM in the assay on HCT-15; 34.1 µM (inactive) in the assay with HOP-92. In addition, the GI50 with KM12 was > 100 µM (inactive); in the assay with LOX IMVI, > 100 µM (inactive); in the assay on NCI-H226 it was > 100 µM (inactive); in the assay with NCI-H23, > 100 µM (inactive); in the assay with NCI-H522, 21.8 µM (inactive); in the assay on OVCAR-8, > 100 µM (inactive). For the same compound, the GI50 is 24.8 µM (inactive) in the assay on SK-OV-3; > 100 µM (inactive) in the assay on SN12C; 80 µM (inactive) in the assay on SNB-75; > 100 µM (inactive) with SW-620; 46.6 µM (inactive) in the assay with TK-10; > 100 µM (inactive) in the assay on UACC-62.
For `OCCNC1=Nc2ccc(Cl)cc2C(=S)N2CSC[C@@H]12`, the GI50 with A498 was > 100 µM (inactive); in the assay on ACHN, > 100 µM (inactive); in the assay on DU-145, > 100 µM (inactive); with HCT-15, above 100 µM; in the assay on HOP-92, > 100 µM (inactive); in the assay on KM12, > 100 µM (inactive). Also, the GI50 with NCI-H23, in the assay with NCI-H522, with OVCAR-8, in the assay on SK-OV-3, in the assay on SN12C and with SW-620 was > 100 µM (inactive) throughout. For the same compound, the GI50 with UACC-62 is > 100 µM (inactive).
Turning to `CCOC(=O)C(C)Sc1nnc(COc2ccccc2OC)n1-c1ccccc1` (stereo unspecified), the GI50 was 0.268 µM (active) in the assay with A498; > 100 µM (inactive) in the assay with ACHN; > 100 µM (inactive) with EKVX; 16.9 µM in the assay on HCT-15; 49.1 µM (inactive) in the assay on HOP-92; > 100 µM (inactive) in the assay with KM12. In addition, the GI50 is 15.7 µM (inactive) in the assay on LOX IMVI; > 100 µM (inactive) in the assay on NCI-H226; > 100 µM (inactive) in the assay on NCI-H23; 42 µM (inactive) with NCI-H522; > 100 µM (inactive) in the assay with OVCAR-8; > 100 µM (inactive) in the assay on SK-OV-3. Besides, the GI50 in the assay on SN12C is > 100 µM (inactive); in the assay with SNB-75 it was > 100 µM (inactive); in the assay with SW-620 it was 19.2 µM (inactive); with TK-10, > 100 µM (inactive); in the assay on UACC-62 it was > 100 µM (inactive).
